# Assay results as given in patent US11229203B2, “Method of formulation of combined microbe and agricultural chemistry, microbe-derivative composition, and use of same” (priority 2017, dated 2022).
# Key:
# seeds = test: Field trials and large-scale laboratory tests of seed treatments; assay type: in vivo; settings: seeds treated with formulations containing only 0.7 μl/seed
# From the text: Applicants expected that this compound as well as other microbial metabolites would have transitory but beneficial effects on plant growth, resistance to stresses and other advantages. However, as field trials were developed and conducted on seed treatments with this compound in field and large-scale laboratory tests, the effects were discovered to be neither transitory nor small.
# plant = test: Plant growth and productivity with 1-octen-3-ol in aerial solution or as seed treatment; assay type: in vivo; settings: very low concentrations in aerial solution; duplicated by seed treatments at low concentrations
# From the text: Applicants have begun evaluating the triggering molecules released in the rhizosphere since applicants expected that they might have both commercial and basic scientific uses. The expectation was they would have beneficial effects upon plants.
structure (smiles),measurement,setting,value
"C=CC(O)CCCCC (centres unmarked) [Trichoderma 1-octen-3-ol, 1-octen-3-ol]",Duration of effects after seed treatment,seeds,season long effects were observed
same,Effect on plant growth and productivity,plant,enhances plant growth and productivity
